Laboratory results as given in US3931396A, “Method of preparation of a composition having a base of 99^m technetium for diagnosis by scintigraphy” (priority 1974, dated 1976).

Columns and labels:
bone = assay: Bone scintigraphy, pyrophosphate compared to polyphosphate; type: in vivo; details: as compared to polyphosphates, in words
Procedure: The animal was anesthetized with ethylcarbamate after injection and immediately before scintigraphy was carried out. Scintigraphy was carried out after 5 minutes, 1 hour, 2 hours and 4 hours following injection. Two recording methods were applied:
a. conventional scanning,
b. scanning, followed by information treatment for calculating surface activities.

pyrophosphatases = details: cited from earlier work

O=P(O)(O)OP(=O)(O)O [pyrophosphate]
time-period before bone scintigraphy (required by elimination from organs) (bone): shorter than in the case of polyphosphates | hydrolysis by pyrophosphatases (pyrophosphatases): rapid hydrolysis
